Measured values reported in patent US5488110A, “Highly water soluble bis-naphthalimides useful as anticancer agents” (The Du Pont Merck Pharmaceutical Company, priority 1994, dated 1996).
Values after ≈ are worked out from the molar mass of the structure shown. “Also recorded” adds a separate entry of the source.

Tests used:
[1] = UV Method For Determining Water Solubility; format: physicochemical; conditions: for solubility: water, room temperature, saturated solution standing over excess sample 15 to 20 hours, UV
Experimental: UV Method For Determining Water Solubility:
The ultraviolet spectrum is taken at room temperature of a saturated solution of the sample (saturated solution being defined as a water solution standing over excess sample for 15 to 20 hours with no heat being applied). A standard solution of the sample is obtained in water if possible. When the solubility in water is too low to do this (<1 mg/100 ml), a mg of the sample is dissolved in DMSO and diluted to 100 ml with water. Molar or gram extinction coefficients are calculated for the standard solutions and these values are used to determine the concentration of the saturated solution.

[2] = system: murine leukemia L1210 cells; assay: In vitro Growth Inhibitory Activity (MTT, 3 days); format: cell-based; conditions: Mus musculus, 72 h, 3 days at 37° C., read-out: ID50 (the source's name)
Experimental: L1210 cells were maintained in RPMI=1640 a medium supplemented with 10% heat inactivated fetal bovine serum and […] (RPMI-L). B16 cells were maintained in RPMI-1640 medium supplemented with 15% heat inactivated fetal bovine serum and antiobiotics (RPMI-C).
Exponential growing murine leukemia L1210 cells (1×10^3 cells) in 0.1 mL medium were seeded on day 0 in a 96-well microtiter plate. On day 1, 0.1 mL aliquot of medium containing graded concentrations of test analogs was added to the initial volume. After incubation at 37° C. in a humidified incubator for 3 days, the plates were centrifuged briefly and 0.1 mL of the growth medium was removed. Cell cultures were incubated with 50 μL of 3-(4,5-dimethylthiazol-2-yl)-2,5- diphenyltetrazolium bromide (MTT; 1 mg/ml in Dulbecco's phosphate buffer saline) for 4 hours at 37° C. The resulting purple formazan precipitate was solubilized with 0.2 mL of 0.04N HCl in isopropyl alcohol. Absorbance was read in a Titertek Multiskan MCC scaning well spectrophotometer (Flow Laboratories) at a test wavelength of 570 nm and a reference wavelength of 630 nm.
The ID50 values were determined by a computer program that fit all of the data (8 determinations per concentration and 12 concentrations per test analog) to the following equation:
Y=((Am-Ao)/(1+(X/ID50)n))+Ao
where: Am=absorbance of the control cells; Ao=absorbance of the cells in the presence of highest drug concentration; Y=observed absorbance; X=drug concentration; ID50 =dose of drug that inhibits the growth of cells to one half that of the control cells.

DLD-2 human colon tumor = assay: In Vivo Human Tumor Xenograft Model, DLD-2; parameters: species or system human (xenografted in nude mice); conditions: nude mice, i.v. once daily for nine consecutive days; NCI criteria
Excerpt: (§1) The DLD-2 human colon tumor, MX-1 human mammary carcinoma, and LX-1 human lung tumor were originally obtained from a surgically removed primary colon carcinoma, breast tumor, and non-small lung carcinoma, respectively. The human tumor lines were maintained by serial passage in athymic nude mice. The MX-1 human mammary carcinoma and LX-1 human lung tumor are established tumors used by the NCI. The DLD-2, MX-1, and LX-1 tumor models have been well characterized.
The mice used in these experiments were outbred Swiss mice or BALB/c mice bearing the nude (nu/nu) gene. On day 0 male and female mice weighing 22-30 g are inoculated with 0.2 mL of a 25% tumor mince. This mince is prepared by mincing fresh tumor tissue, grown subcutaneously in passage mice, in sterile physiological saline. Palpable tumors weighing approximately 50 mg appear in the mice within 7-10 days after inoculation. The mice are pair matched by tumor weight and sex into groups of ten each and the test compounds and vehicle control are administered intravenously (i.v.) once daily for nine consecutive days. A >20% decrease in body weight on day 5 following compound administration is considered an indication of toxicity. Tumor measurements and body weights are recorded once a week. Fifteen to 18 days after the initial injection the mice are weighed, sacrificed and the tumors excised and weighed.
(§2) The efficacy of the test compounds is determined by the extent of tumor growth inhibition in treated versus vehicle-treated control mice. Initial tumor weights (mg) are calculated from the tumor dimensions (mm) measured from caliper measurements, using the formula for a prolate ellipsoid (mg of tumor weight=(length×width^2)/2). Net tumor weights are calculated for each of the treated groups and the vehicle-treated control group by subtracting the initial tumor weight from the final tumor weight on day 15. Results are expressed as a percentage decrease relative to the mean tumor weight for the control vehicle-treated group. [formula] Activity Criteria […]

MX-1 human breast tumor = assay: In Vivo Human Tumor Xenograft Model, MX-1; parameters: species or system human (xenografted in nude mice); conditions: nude mice, i.v. once daily for nine consecutive days; NCI criteria
Excerpt: as §1
(§3) The mice used in these experiments were outbred Swiss mice or BALB/c mice bearing the nude (nu/nu) gene. On day 0 male and female mice weighing 22-30 g are inoculated with 0.2 mL of a 25% tumor mince. […] Tumor measurements and body weights are recorded once a week. […]
as §2, with “group.” for “group. [formula] Activity Criteria”

LX-1 human lung tumor = assay: In Vivo Human Tumor Xenograft Model, LX-1; parameters: species or system human (xenografted in nude mice); conditions: nude mice, i.v. once daily for nine consecutive days; NCI criteria
Excerpt: as §1, §3
as §2, with “group.” for “group. [formula] Activity Criteria”

SMILES	solubility [1]	IC50 [2]	activity against DLD-2 human colon tumor in vivo (tumor growth inhibition) (DLD-2 human colon tumor)	water solubility (in words) ([1]; in words, relative to related compounds)	activity against MX-1 human breast tumor in vivo (tumor growth inhibition) (MX-1 human breast tumor)	activity against LX-1 human lung tumor in vivo (tumor growth inhibition) (LX-1 human lung tumor)
CN(CCNCCN1C(=O)c2cccc3cc([N+](=O)[O-])cc(c23)C1=O)CCN1C(=O)c2cccc3cc([N+](=O)[O-])cc(c23)C1=O [Example 2, 2-[2-[N-methyl-N-[2-[[2-(5-nitro-1,2-dioxo-1H-benz[de]isoquinoline-2(3H)-yl)ethyl]amino]ethyl]amino]ethyl]-5-nitro-1H-benz[de]isoquinoline-1,3(2H)-dione methanesulfonate (1:2)]	9600 µg/mL	< 0.01 µg/mL	excellent to outstanding			
CN(CCN(C)CCN1C(=O)c2cccc3cc([N+](=O)[O-])cc(c23)C1=O)CCN1C(=O)c2cccc3cc([N+](=O)[O-])cc(c23)C1=O [Example 1, 2,2'-[1,2-Ethanediylbis(methylimino-2,1-ethanediyl)]-bis[5-nitro-1H-benz[de]isoquinoline-1,3(2H)-dione]methanesulfonate (1:2)]	> 26400 µg/mL	0.0115 µg/mL (≈ 0.0184 µM)	excellent to outstanding	unexpected increased water solubility; also recorded: dramatic unexpected increase in water solubility	good to excellent (inhibition of ≥90% is considered good to excellent activity)	
O=C1c2cccc3cc([N+](=O)[O-])cc(c23)C(=O)N1CCNCCNCCN1C(=O)c2cccc3cc([N+](=O)[O-])cc(c23)C1=O [Example 3, 2,2'-[1,2-Ethanediylbis(imino-2,1-ethanediyl)]-bis[5-nitro-1H-benz[de]isoquinoline-1,3(2H)-dione]methanesulfonate (1:2)]	600 µg/mL (≈ 1010 µM)	0.009 µg/mL (≈ 0.0151 µM)	excellent to outstanding		excellent to outstanding	moderate (Tumor growth inhibition of 58-89% in the DLD-2 assay is considered moderate activity)
